From paper PMC10824152 (Journal of medicinal chemistry, 2023)

Columns and labels:
[1] = target: rat nNOS (Rattus norvegicus, UniProt P29476)
[2] = target: human nNOS (Homo sapiens, UniProt P29475); details: ratio of Ki values versus 17

Row | Compound | Loss in potency as compared to 17, rat nNOS [1] [fold] | Lower potency than 17, human nNOS [2] [fold]
1 | Cc1cc(CCc2cc(CCN(C)C)cc(F)c2F)nc(N)n1.Cl.Cl [Compound 19, 4-(5-(2-(Dimethylamino)ethyl)-2,3-difluorophenethyl)-6-methylpyrimidin-2-amine dihydrochloride] | 438 | –
2 | COc1cc(N)nc(CCc2cc(CCN(C)C)cc(F)c2F)c1.Cl.Cl [Compound 18, 6-(5-(2-(Dimethylamino)ethyl)-2,3-difluorophenethyl)-4-methoxypyridin-2-amine dihydrochloride] | 5 | –
3 | CN(C)CCc1cc(F)c(F)c(CCc2cc(C(F)F)cc(N)n2)c1.Cl.Cl [Compound 23, 4-(Difluoromethyl)-6-(5-(2-(dimethylamino)ethyl)-2,3-difluorophenethyl)pyridin-2-amine dihydrochloride] | – | 14
